# pEC50: −log10 of the molar value.
# System: SETFA, AMARE, POLCO, CHEAL, GALAP
# Experiment: Greenhouse herbicidal test, post-emergence, weed panel
# Type: in vivo
# Settings: application rate 1 kg/ha, scale 0 to 100
# From the text: The seeds of the test plants were sown separately for each species. For the post-emergence treatment, the test plants were first grown to a height of 2 to 5 cm, depending on the plant habit, and only then treated with the active ingredients which had been suspended or emulsified in water. For this purpose, the test plants were either sown directly and grown in the same containers, or they were first grown separately as seedlings and transplanted into the test containers a few days prior to treatment. Depending on the species, the plants were kept at 10-25° C. or 20-35° C. The test period extended over 8 to 9 days. During this time, the plants were tended, and their response to the individual treatments was evaluated. Evaluation was carried out using a scale from 0 to 100. 100 means no emergence of the plants, or complete destruction of at least the aerial moieties, and 0 means no damage, or normal course of growth. A good herbicidal activity is given at values of at least 70 and a very good herbicidal activity is given at values of at least 85. The plants used in the greenhouse experiments belonged to the following species: [table]
row,SMILES,"herbicidal activity against at least three of the weeds SETFA, AMARE, POLCO, CHEAL, GALAP"
1,Cc1n[nH]c2c1C(c1cc(Cl)cc(Cl)c1)(C(C)C)C(C#N)=C(N)O2 (racemic) [Compound 2.112],good or very good
2,Cc1n[nH]c2c1C(c1cc(Cl)cc(C#N)c1)(C1(F)CC1)C(C#N)=C(N)O2 (racemic) [Compound 2.400],good or very good
3,Cc1n[nH]c2c1C(c1cc(C#N)cc(C(F)(F)F)c1)(C1(F)CC1)C(C#N)=C(N)O2 (racemic) [Compound 2.404],good or very good
4,CC(=O)N(C)c1cc(C#N)cc(C2(C3CCC3)C(C#N)=C(N)Oc3[nH]nc(C)c32)c1 (racemic) [Compound 2.414],good or very good
5,Cc1n[nH]c2c1C(c1cc(C#N)cc(OC(F)(F)F)c1)(C1CCC1)C(C#N)=C(N)O2 (racemic) [Compound 2.417],good or very good
6,CC(=O)N(C)c1cc(C(F)(F)F)cc(C2(C3(F)CC3)C(C#N)=C(N)Oc3[nH]nc(C)c32)c1 (racemic) [Compound 2.439],good or very good
7,CCCC(=O)N(C)c1cc(C#N)cc(C2(C3CCC3)C(C#N)=C(N)Oc3[nH]nc(C)c32)c1 (stereo not drawn) [Compound 2.612],good or very good

# Molecular target: Arabidopsis thaliana SHMT
# Experiment: SHMT activity assay (ED50 SHMT), coupled with N5,N10-CH2-THF dehydrogenase, NADH at 340 nm
# Type: biochemical
# Settings: Table 2; values given as upper bounds
# Summary of the method: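 His-tagged SHMT purified on Ni-NTA. NADH formation followed at 340 nm for 30 min; ED50 from inhibition of initial velocity.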
row,pEC50,SMILES
1,> 8.00,CCCC(=O)N(C)c1cc(C#N)cc(C2(C3CCC3)C(C#N)=C(N)Oc3[nH]nc(C)c32)c1 (stereo not drawn) [Compound 2.612]

# Same assay, conditions: inhibition of initial velocity of Arabidopsis thaliana SHMT
row,SMILES,pEC50
1,COC(=O)c1ccc(C2(C3CCC3)C(C#N)=C(N)Oc3[nH]nc(C)c32)s1 (stereo not drawn) [Compound 4.27],> 8.00
2,COC(=O)c1csc(C2(C3CCC3)C(C#N)=C(N)Oc3[nH]nc(C)c32)c1 (stereo not drawn) [Compound 4.30],> 8.00
3,CC1(C)C=Cc2cc(C3(C4CCC4)C(C#N)=C(N)Oc4[nH]ncc43)cc(F)c2O1 (stereo not drawn) [Compound 4.31],> 8.00
4,Cc1n[nH]c2c1C(c1cncc(C(F)(F)F)c1)(C1CCC1)C(C#N)=C(N)O2 (stereo not drawn) [Compound 4.35],> 8.00
5,Cc1n[nH]c2c1C(c1cc3c(C(F)(F)F)cccc3s1)(C1CCC1)C(C#N)=C(N)O2 (stereo not drawn) [Compound 4.38],> 8.00
6,Cc1n[nH]c2c1C(c1cc(C(F)(F)F)c3nc(C(=O)O)ccc3c1)(C1CCC1)C(C#N)=C(N)O2 (stereo not drawn) [Compound 4.39],> 8.00
7,Cc1n[nH]c2c1C(c1ccc(-c3cccc(C(F)(F)F)c3)s1)(C1CCC1)C(C#N)=C(N)O2 (stereo not drawn) [Compound 4.43],> 8.00
8,COc1c(F)cc(-c2ccc(C3(C4CCC4)C(C#N)=C(N)Oc4[nH]nc(C)c43)s2)cc1F (stereo not drawn) [Compound 4.50],> 7.00
9,Cc1n[nH]c2c1C(c1ccc(-c3cccc(C(F)(F)F)c3)s1)(C1CC1)C(C#N)=C(N)O2 (stereo not drawn) [Compound 4.53],> 7.00
10,Cc1n[nH]c2c1C(c1ccc(-c3cccc(F)c3)s1)(C1CC1)C(C#N)=C(N)O2 (stereo not drawn) [Compound 4.56],> 7.00
11,Cc1n[nH]c2c1C(c1cc(-c3cccc(F)c3)cs1)(C1CC1)C(C#N)=C(N)O2 (stereo not drawn) [Compound 4.60],> 7.00
12,CCC1(c2cc(-c3cccs3)cs2)C(C#N)=C(N)Oc2[nH]nc(C)c21 (stereo not drawn) [Compound 4.61],> 7.00
13,Cc1n[nH]c2c1C(c1cc(C(=O)O)cs1)(C1CCC1)C(C#N)=C(N)O2 (stereo not drawn) [Compound 4.66],> 6.00
14,Cc1n[nH]c2c1C(C(C)C)(C(F)(F)c1cccc(Cl)c1)C(C#N)=C(N)O2 (stereo not drawn) [Compound 4.67],> 6.00
15,Cc1n[nH]c2c1C(c1cc(-c3cccc(C(F)(F)F)c3)cs1)(C1CCC1)C(C#N)=C(N)O2 (stereo not drawn) [Compound 4.68],> 6.00
16,CCC1(c2ccc3c(c2)C(C)(C)CCC3(C)C)C(C#N)=C(N)Oc2[nH]nc(C)c21 (stereo not drawn) [Compound 4.69],> 6.00
17,CCC1(c2ccc3c(c2)C(C)(C)C(C)C3(C)C)C(C#N)=C(N)Oc2[nH]nc(C)c21 (stereo not drawn) [Compound 4.71],> 6.00
18,CCC1(c2ccc3[nH]c(=O)oc3c2)C(C#N)=C(N)Oc2[nH]nc(C)c21 (stereo not drawn) [Compound 4.72],> 6.00
19,Cc1n[nH]c2c1C(c1ccc(Cl)s1)(C1CC1)C(C#N)=C(N)O2 (stereo not drawn) [Compound 4.74],> 6.00
20,CCC1(CCc2ccccc2)C(C#N)=C(N)Oc2[nH]nc(C)c21 (stereo not drawn) [Compound 4.76],> 6.00
21,COc1ccc2cc(C3(C4CCC4)C(C#N)=C(N)Oc4[nH]nc(CO)c43)ccc2c1 (stereo not drawn) [Compound 4.77],> 6.00
22,CCc1n[nH]c2c1C(c1ccc(Cl)s1)(C1CC1)C(C#N)=C(N)O2 (stereo not drawn) [Compound 4.78],> 5.00
23,CCC1(c2cc(C)co2)C(C#N)=C(N)Oc2[nH]nc(C)c21 (stereo not drawn) [Compound 4.79],> 5.00
24,Cc1n[nH]c2c1C(c1cc(-c3ccccc3)cs1)(C(C)C)C(C#N)=C(N)O2 (stereo not drawn) [Compound 4.81],> 5.00
25,N#CC1=C(N)Oc2[nH]nc(C(F)F)c2C1(c1ccc(Cl)s1)C1CC1 (stereo not drawn) [Compound 4.83],> 5.00

# Next, values leading:
row,pEC50,SMILES
1,> 8.00,Cc1n[nH]c2c1C(c1cc3ccccc3s1)(C1CCC1)C(C#N)=C(N)O2 (stereo not drawn) [Compound 4.28]
2,> 8.00,Cc1cccc(-c2ccc(C3(C4CCC4)C(C#N)=C(N)Oc4[nH]nc(C)c43)s2)c1 (stereo not drawn) [Compound 4.29]
3,> 8.00,Cc1n[nH]c2c1C(c1ccc3c(c1)CCO3)(C1CCC1)C(C#N)=C(N)O2 (stereo not drawn) [Compound 4.32]
4,> 8.00,Cc1n[nH]c2c1C(c1cc(-c3ccsc3)cs1)(C1CCC1)C(C#N)=C(N)O2 (stereo not drawn) [Compound 4.33]
5,> 8.00,Cc1n[nH]c2c1C(c1ccc(-c3ccccc3C(F)(F)F)s1)(C1CCC1)C(C#N)=C(N)O2 (stereo not drawn) [Compound 4.34]
6,> 8.00,COc1ccc2cc(C3(C4CCC4)C(C#N)=C(N)Oc4[nH]nc(C)c43)ccc2c1 (stereo not drawn) [Compound 4.36]
7,> 8.00,Cc1n[nH]c2c1C(c1nc3ccc(Cl)cc3o1)(C1CCC1)C(C#N)=C(N)O2 (stereo not drawn) [Compound 4.37]
8,> 8.00,Cc1n[nH]c2c1C(c1cc(-c3ccco3)cs1)(C1CCC1)C(C#N)=C(N)O2 (stereo not drawn) [Compound 4.41]
9,> 8.00,Cc1n[nH]c2c1C(c1ccc3c(c1)nnn3C(C)C)(C1CCC1)C(C#N)=C(N)O2 (stereo not drawn) [Compound 4.42]
10,> 8.00,Cc1n[nH]c2c1C(c1ccc3c(c1)OCO3)(C1CCC1)C(C#N)=C(N)O2 (stereo not drawn) [Compound 4.44]
11,> 8.00,Cc1n[nH]c2c1C(c1nc3c(Cl)cccc3s1)(C1CCC1)C(C#N)=C(N)O2 (stereo not drawn) [Compound 4.45]
12,> 8.00,Cc1n[nH]c2c1C(c1nc3ccccc3o1)(C1CCC1)C(C#N)=C(N)O2 (stereo not drawn) [Compound 4.46]
13,> 7.00,Cc1n[nH]c2c1C(c1cc(-c3cccc(F)c3)cs1)(C1CCC1)C(C#N)=C(N)O2 (stereo not drawn) [Compound 4.47]
14,> 7.00,Cc1n[nH]c2c1C(c1ccc3[nH]c(C(F)(F)F)nc3c1)(C1CCC1)C(C#N)=C(N)O2 (stereo not drawn) [Compound 4.48]
15,> 7.00,Cc1n[nH]c2c1C(c1ccc3c(c1)nnn3C)(C1CCC1)C(C#N)=C(N)O2 (stereo not drawn) [Compound 4.49]
16,> 7.00,Cc1n[nH]c2c1C(c1cc3ccccc3o1)(C1CCC1)C(C#N)=C(N)O2 (stereo not drawn) [Compound 4.52]
17,> 7.00,N#CC1=C(N)Oc2[nH]ncc2C1(c1cc2ccccc2o1)C1CCC1 (stereo not drawn) [Compound 4.54]
18,> 7.00,Cc1n[nH]c2c1C(c1ccc(-c3ccccc3)s1)(C1CC1)C(C#N)=C(N)O2 (stereo not drawn) [Compound 4.55]
19,> 6.00,Cc1n[nH]c2c1C(c1cc3ccc(Cl)cc3s1)(C1CCC1)C(C#N)=C(N)O2 (stereo not drawn) [Compound 4.63]
20,> 6.00,Cc1n[nH]c2c1C(c1cc(-c3ccccc3)cs1)(C1CC1)C(C#N)=C(N)O2 (stereo not drawn) [Compound 4.64]
21,> 5.00,Cc1n[nH]c2c1C(c1ccc(C(=O)O)s1)(C1CCC1)C(C#N)=C(N)O2 (stereo not drawn) [Compound 4.80]
